What all share (assay type): binding
Assay [1] has as its target T1, MLKL (Homo sapiens, UniProt Q8NB16, D107A/E111A).
T1 construct: full-length hMLKL(2–471)
T1 sequence (Q8NB16 2-471 D107A/E111A): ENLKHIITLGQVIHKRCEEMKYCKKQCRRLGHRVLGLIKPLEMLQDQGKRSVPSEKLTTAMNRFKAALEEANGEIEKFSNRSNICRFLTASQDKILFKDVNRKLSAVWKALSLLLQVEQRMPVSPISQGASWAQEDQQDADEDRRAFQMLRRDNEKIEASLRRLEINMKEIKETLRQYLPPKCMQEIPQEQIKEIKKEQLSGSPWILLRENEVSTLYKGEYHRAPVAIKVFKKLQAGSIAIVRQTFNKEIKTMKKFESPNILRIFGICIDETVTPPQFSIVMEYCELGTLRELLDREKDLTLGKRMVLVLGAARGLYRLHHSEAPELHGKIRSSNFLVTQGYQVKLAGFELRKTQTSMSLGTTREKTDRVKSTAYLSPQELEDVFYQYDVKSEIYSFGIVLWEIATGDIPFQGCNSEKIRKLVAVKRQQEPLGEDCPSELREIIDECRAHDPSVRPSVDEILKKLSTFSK
The assay can be described thus: thermal shift assay with ATP titration.

Assay [2] deals with T2, MLKL (Homo sapiens, UniProt Q8NB16).
T2 construct: full-length hMLKL(2–471)
T2 sequence (Q8NB16 2-471): T1 sequence (Q8NB16 2-471 D107A/E111A) with A106D, A110E
The assay can be described thus: thermal shift assay (SYPRO Orange) with ATP titration, no divalent cations; supported by AUC.

Assay [3] concerns the target T3, MLKL (Homo sapiens, UniProt Q8NB16, G330E).
T3 construct: full-length hMLKL(2–471)
T3 sequence (Q8NB16 2-471 G330E): T1 sequence (Q8NB16 2-471 D107A/E111A) with A106D, A110E, G329E
The assay is described as follows: thermal shift assay with ATP titration.

For assay [4], the target named is T4, MLKL (Homo sapiens, UniProt Q8NB16, E351K).
T4 construct: full-length hMLKL(2–471)
T4 sequence (Q8NB16 2-471 E351K): T1 sequence (Q8NB16 2-471 D107A/E111A) with A106D, A110E, E350K
The assay can be described thus: thermal shift assay with ATP titration; HDX-MS protection around the ATP pocket.

For assay [5], the target named is T5, MLKL (Homo sapiens, UniProt Q8NB16, E258K).
T5 construct: full-length hMLKL(2–471)
T5 sequence (Q8NB16 2-471 E258K): T1 sequence (Q8NB16 2-471 D107A/E111A) with A106D, A110E, E257K
The assay is described as follows: thermal shift assay with ATP titration.

Assay [6] deals with T6, MLKL (Homo sapiens, UniProt Q8NB16, S358E/T357E).
T6 construct: full-length hMLKL(2–471)
T6 sequence (Q8NB16 2-471 T357E/S358E): T1 sequence (Q8NB16 2-471 D107A/E111A) with A106D, A110E, T356E, S357E
The assay is described as follows: thermal shift assay with ATP titration.

Assay [7] deals with T7, MLKL (Homo sapiens, UniProt Q8NB16, K157A).
T7 construct: full-length hMLKL(2–471)
T7 sequence (Q8NB16 2-471 K157A): T1 sequence (Q8NB16 2-471 D107A/E111A) with A106D, A110E, K156A
The assay can be described thus: thermal shift assay with ATP titration.

Residue numbers refer to the chain shown, from its start.

As usually defined, the Kd is the equilibrium constant for the complex coming apart.

In the case of `Nc1ncnc2c1ncn2[C@@H]1O[C@H](COP(=O)(O)OP(=O)(O)OP(=O)(O)O)[C@@H](O)[C@H]1O` [ATP], the Kd on MLKL [1] turned out to be 23 ± 2 µM; at MLKL [2], 36 ± 4 µM; on MLKL [3], 28 ± 6 µM; at MLKL [4], 26 ± 6 µM; on MLKL [5], 24 ± 2 µM; on MLKL [6], 56 ± 8 µM. In addition, the dissociation constant (Kd) at MLKL [7] came to 164 ± 31 µM.

Source of the values: article PMC6013482, “Conformational switching of the pseudokinase domain promotes human MLKL tetramerization and cell death by necroptosis” (Nature Communications, 2018).
